Experiments:
Assay type in all cases: biochemical
B-Raf = target: T1, B-Raf (Homo sapiens, UniProt P15056); experiment: AlphaScreen kinase assay, B-Raf; conditions: read-out: IC50, activity toward kinase B-Raf
T1 construct: purchased Upstate Biotechnology

B-Raf V600E = target: T2, B-Raf V600E (Homo sapiens, UniProt P15056, V600E); experiment: AlphaScreen kinase assay, B-Raf V600E; conditions: read-out: IC50, activity toward kinase B-Raf V600E
T2 construct: P4254. pFastBacBD-CDC37 BRAF D437-K722-X, V600E; His6 with pFastBac HT leader (TEV site) (N); made in house; host or cells: Sf9 (baculovirus; chaperone CDC37 co-expressed)
Source text: AlphaScreen assay was used to screen additional kinases. The assay is similarly dependent on the phosphorylation of a peptide substrate. In this assay, an antibody that recognizes phosphorylated substrate is bound to an acceptor bead. The peptide substrate is attached to biotin, which binds to a donor head that contains streptavidin. Thus phosphorylated substrate is bound by antibody and streptavidin, bringing the donor and acceptor heads into close proximity when kinase is not inhibited. The donor produces singlet oxygen which results in emission from the acceptor when they are in close proximity. Conversely, when kinase is inhibited, the donor and acceptor beads are not associated and the emission from the acceptor is reduced.
AlphaScreen assays were done using compounds dissolved in DMSO to a concentration of 20 mM. The compounds were diluted accordingly to the desired final concentrations in each sample well, using 1:3 serial dilution for a total of 8 concentration points. Plates were prepared such that each kinase reaction is 20 μl in 1× kinase buffer, 5% DMSO and 10 μM ATP. After incubation of the kinase reaction for 1 hour at room temperature, 5 μl of donor beads in stop buffer (50 mM EDTA in 1× kinase buffer) was added, the sample was mixed and incubated for 20 minutes at room temperature before adding 5 μl of acceptor beads in stop buffer. The samples were incubated for 60 minutes at room temperature and the signal per well was read on AlphaQuest reader.

c-Raf-1 = target: T3, c-Raf-1 (Homo sapiens, UniProt P04049); experiment: AlphaScreen kinase assay, c-Raf-1; conditions: read-out: IC50, activity toward kinase c-Raf-1
T3 construct: purchased Upstate Biotechnology

FGFR1 = target: T4, FGFR1 (Homo sapiens, UniProt P11362, C488A/C584S); experiment: AlphaScreen kinase assay, FGFR1; conditions: read-out: IC50, activity toward kinase FGFR
T4 construct: P1351.pET N6 BI-PTP FGFR A458-E765-X C488A, C584S; made in house; host or cells: E. coli (PTP1B co-expressed)

Src = target: T5, Src (Homo sapiens, UniProt P12931); experiment: AlphaScreen kinase assay, Src; conditions: read-out: IC50, activity toward kinase Src
T5 construct: P1144. pET-N6 BI-PTP SRC V86-L536-X; made in house

Flt1 = target: T6, Flt1 (Homo sapiens, UniProt P17948); experiment: AlphaScreen kinase assay, Flt1; conditions: read-out: IC50, activity toward kinase Flt1
T6 construct: P1826.pETN6 BI-PTP FLT1 M799-D1165-X WT; His6 (N); made in house; host or cells: E. coli (PTP1B co-expressed)
T6 sequence (P17948 with tags, fused parts or gaps): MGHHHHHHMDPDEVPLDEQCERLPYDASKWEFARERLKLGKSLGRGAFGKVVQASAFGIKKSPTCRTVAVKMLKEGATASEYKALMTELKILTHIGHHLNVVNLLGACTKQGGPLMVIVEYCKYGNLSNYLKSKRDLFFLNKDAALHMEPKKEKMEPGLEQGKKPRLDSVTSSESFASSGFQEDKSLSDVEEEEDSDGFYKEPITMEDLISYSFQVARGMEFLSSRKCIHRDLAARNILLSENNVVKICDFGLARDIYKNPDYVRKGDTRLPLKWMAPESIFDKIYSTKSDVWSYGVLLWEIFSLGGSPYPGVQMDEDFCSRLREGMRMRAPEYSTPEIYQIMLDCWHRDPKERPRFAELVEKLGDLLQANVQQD

Fms = target: T7, Fms (Homo sapiens, UniProt P07333); experiment: AlphaScreen kinase assay, Fms; conditions: read-out: IC50, activity toward kinase Fms
T7 construct: purchased Upstate Biotechnology

Jnk1 = target: T8, Jnk1 (Homo sapiens, UniProt P45983); experiment: AlphaScreen kinase assay, Jnk1; conditions: read-out: IC50, activity toward kinase Jnk1
T8 construct: purchased Upstate Biotechnology

Kit = target: T9, Kit (Homo sapiens, UniProt P10721); experiment: AlphaScreen kinase assay, Kit; conditions: read-out: IC50, activity toward kinase Kit
T9 construct: P1332.N6 BI PTP KIT M552-K948-X COD; His6 (N); made in house; host or cells: E. coli (PTP1B co-expressed)

Ret = target: T10, Ret (Homo sapiens, UniProt P07949); experiment: AlphaScreen kinase assay, Ret; conditions: read-out: IC50, activity toward kinase Ret
T10 construct: P1378.pET-SF BI-PTP RET H661-R1012 HIS; made in house
T10 sequence (P07949 with tags, fused parts or gaps): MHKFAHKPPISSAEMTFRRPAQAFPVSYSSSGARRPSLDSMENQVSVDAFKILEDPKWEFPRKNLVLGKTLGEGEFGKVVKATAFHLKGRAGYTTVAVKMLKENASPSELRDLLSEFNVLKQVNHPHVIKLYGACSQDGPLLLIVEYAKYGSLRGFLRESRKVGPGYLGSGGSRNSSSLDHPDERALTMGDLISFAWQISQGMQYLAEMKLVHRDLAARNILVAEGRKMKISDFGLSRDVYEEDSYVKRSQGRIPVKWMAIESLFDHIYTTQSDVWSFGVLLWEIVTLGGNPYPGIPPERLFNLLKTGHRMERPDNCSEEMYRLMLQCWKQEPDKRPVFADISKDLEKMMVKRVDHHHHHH

Measured: IC50

T4 sequence (P11362 458-765 C488A/C584S): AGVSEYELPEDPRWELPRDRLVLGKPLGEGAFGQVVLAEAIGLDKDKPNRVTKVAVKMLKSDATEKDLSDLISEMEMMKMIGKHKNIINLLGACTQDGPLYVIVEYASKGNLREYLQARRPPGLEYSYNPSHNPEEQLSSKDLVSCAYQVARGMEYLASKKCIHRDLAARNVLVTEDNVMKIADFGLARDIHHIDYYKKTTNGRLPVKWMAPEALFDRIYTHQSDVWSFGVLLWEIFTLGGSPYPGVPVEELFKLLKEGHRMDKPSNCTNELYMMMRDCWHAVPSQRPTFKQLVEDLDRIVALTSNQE
T2 sequence (P15056 with tags, fused parts or gaps V600E): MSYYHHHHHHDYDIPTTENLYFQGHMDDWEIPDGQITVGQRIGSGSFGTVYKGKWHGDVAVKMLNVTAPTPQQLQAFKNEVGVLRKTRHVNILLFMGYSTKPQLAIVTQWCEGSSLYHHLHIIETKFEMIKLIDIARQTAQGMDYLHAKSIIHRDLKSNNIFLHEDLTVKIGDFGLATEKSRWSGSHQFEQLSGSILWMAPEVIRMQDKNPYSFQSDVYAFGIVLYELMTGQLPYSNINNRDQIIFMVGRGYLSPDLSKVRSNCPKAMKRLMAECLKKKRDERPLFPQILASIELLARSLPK
T7 sequence (P07333 20-972): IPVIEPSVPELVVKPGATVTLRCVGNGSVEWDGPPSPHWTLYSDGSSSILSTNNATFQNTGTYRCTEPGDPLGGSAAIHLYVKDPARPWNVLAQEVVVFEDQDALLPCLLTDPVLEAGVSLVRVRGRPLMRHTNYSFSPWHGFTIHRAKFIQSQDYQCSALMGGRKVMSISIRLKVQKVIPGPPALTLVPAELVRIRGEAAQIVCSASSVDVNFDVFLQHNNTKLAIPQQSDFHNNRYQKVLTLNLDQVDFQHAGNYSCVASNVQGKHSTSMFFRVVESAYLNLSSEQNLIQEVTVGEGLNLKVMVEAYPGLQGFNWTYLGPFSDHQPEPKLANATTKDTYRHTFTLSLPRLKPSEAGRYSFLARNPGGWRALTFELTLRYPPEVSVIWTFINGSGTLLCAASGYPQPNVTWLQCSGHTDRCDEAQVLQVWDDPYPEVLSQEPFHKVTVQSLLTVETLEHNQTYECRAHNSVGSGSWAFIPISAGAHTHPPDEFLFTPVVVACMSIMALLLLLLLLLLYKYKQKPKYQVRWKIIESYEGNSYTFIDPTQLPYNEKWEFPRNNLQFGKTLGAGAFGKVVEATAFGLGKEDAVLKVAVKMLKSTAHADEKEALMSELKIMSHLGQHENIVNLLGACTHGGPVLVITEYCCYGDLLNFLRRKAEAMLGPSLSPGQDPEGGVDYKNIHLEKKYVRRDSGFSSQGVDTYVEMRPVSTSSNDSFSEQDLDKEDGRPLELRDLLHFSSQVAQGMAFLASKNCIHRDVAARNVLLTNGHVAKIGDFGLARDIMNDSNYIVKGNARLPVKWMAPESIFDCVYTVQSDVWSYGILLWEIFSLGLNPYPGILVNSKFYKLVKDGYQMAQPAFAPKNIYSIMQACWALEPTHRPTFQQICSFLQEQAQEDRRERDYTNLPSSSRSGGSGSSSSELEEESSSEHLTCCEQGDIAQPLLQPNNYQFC
T1 sequence (P15056 whole entry): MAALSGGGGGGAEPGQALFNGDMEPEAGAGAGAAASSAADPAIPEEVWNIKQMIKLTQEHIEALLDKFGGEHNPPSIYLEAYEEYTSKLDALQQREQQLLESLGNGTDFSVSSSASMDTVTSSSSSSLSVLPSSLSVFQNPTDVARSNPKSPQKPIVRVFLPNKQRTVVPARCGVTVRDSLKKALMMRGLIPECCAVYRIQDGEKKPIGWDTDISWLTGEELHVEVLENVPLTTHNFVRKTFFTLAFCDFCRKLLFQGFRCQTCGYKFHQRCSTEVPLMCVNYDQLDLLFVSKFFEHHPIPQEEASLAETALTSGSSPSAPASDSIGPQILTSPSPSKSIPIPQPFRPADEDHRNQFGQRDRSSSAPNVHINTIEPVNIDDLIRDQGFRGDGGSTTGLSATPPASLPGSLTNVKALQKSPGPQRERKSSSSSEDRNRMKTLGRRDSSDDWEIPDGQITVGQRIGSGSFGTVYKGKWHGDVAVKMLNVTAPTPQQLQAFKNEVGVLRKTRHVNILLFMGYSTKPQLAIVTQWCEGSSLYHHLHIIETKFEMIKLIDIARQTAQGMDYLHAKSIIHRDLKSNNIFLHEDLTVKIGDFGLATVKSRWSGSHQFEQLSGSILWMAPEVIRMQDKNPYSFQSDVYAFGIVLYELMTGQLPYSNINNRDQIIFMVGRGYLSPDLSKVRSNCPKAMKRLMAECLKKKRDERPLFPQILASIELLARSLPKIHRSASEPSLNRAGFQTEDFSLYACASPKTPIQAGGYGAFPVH
T5 sequence (P12931 with tags, fused parts or gaps): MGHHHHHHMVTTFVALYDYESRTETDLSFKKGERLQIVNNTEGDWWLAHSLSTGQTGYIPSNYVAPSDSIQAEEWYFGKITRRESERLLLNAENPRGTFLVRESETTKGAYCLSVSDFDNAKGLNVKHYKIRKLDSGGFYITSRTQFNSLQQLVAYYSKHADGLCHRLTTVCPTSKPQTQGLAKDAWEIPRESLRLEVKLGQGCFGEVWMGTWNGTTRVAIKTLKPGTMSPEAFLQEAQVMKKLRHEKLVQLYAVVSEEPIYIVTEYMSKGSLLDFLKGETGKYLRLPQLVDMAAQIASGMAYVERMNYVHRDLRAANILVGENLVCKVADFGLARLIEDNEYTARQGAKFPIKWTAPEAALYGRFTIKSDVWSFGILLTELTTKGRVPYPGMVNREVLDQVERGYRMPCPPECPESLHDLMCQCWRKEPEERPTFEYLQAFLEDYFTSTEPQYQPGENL
T8 sequence (P45983 whole entry): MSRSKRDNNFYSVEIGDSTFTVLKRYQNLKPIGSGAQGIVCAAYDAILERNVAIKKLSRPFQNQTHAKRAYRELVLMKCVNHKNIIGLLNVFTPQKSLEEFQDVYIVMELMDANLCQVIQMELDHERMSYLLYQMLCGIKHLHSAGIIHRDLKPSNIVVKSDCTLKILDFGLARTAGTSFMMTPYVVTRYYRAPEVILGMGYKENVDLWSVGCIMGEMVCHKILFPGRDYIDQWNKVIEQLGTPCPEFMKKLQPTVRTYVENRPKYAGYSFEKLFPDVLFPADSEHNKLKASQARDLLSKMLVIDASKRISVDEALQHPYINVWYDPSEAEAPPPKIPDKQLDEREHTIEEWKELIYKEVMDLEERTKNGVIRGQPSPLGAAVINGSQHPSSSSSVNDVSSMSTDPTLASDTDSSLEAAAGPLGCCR
T3 sequence (P04049 whole entry): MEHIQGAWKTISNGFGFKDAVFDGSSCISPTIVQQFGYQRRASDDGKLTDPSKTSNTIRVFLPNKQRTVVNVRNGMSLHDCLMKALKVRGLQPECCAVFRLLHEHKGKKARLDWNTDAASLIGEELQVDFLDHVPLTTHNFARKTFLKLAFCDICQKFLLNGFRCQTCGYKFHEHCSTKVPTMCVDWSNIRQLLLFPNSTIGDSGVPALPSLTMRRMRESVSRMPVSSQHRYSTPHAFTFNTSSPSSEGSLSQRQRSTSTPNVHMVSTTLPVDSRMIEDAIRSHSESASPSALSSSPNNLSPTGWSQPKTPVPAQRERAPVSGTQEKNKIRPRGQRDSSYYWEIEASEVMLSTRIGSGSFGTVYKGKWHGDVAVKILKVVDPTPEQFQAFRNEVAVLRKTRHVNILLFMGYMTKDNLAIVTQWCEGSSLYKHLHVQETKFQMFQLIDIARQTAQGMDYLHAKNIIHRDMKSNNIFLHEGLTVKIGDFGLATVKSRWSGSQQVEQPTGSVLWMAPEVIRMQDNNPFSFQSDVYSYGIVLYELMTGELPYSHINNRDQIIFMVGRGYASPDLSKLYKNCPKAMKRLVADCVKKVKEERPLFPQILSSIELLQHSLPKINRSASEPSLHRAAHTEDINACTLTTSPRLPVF
T9 sequence (P10721 with tags, fused parts or gaps): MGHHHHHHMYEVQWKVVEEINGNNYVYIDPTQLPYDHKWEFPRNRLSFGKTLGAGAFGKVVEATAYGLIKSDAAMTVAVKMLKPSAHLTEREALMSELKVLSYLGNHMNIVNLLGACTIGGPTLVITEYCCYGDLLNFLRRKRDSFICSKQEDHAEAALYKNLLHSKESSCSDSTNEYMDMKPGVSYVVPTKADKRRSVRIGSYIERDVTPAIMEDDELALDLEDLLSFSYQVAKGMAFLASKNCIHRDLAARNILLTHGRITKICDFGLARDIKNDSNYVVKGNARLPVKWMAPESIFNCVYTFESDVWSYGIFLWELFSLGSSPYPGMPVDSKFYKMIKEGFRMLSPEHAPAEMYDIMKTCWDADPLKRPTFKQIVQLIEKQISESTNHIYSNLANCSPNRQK

CN(C)S(=O)(=O)Nc1ccc(F)c(C(=O)c2c[nH]c3ncc(Cl)cc23)c1F [Compound P-1258, Dimethylamine-1-sulfonic acid [3-(5-chloro-1H-pyrrolo[2,3-b]pyridine-3-carbonyl)-2,4-difluorophenyl]-amide]
≤ 10 µM: B-Raf | B-Raf V600E | c-Raf-1 | FGFR1 | Src

Clc1ccc(CNc2ccc(Cc3c[nH]c4nccc(Cl)c34)cn2)cc1 [Compound P-0515]
≤ 10 µM: B-Raf V600E | FGFR1 | Flt1 | Fms | Src

COc1cccc(C(=O)c2c[nH]c3ncc(-c4ccccc4)cc23)c1F [Compound P-1338, (2-Fluoro-3-methoxy-phenyl)-(5-phenyl-1H-pyrrolo[2,3-b]pyridin-3-yl)-methanone]
not listed: B-Raf V600E | Flt1 | Ret
≤ 10 µM: all other assays above

CCCS(=O)(=O)Nc1ccc(F)c(C(=O)c2c[nH]c3ncc(F)cc23)c1F [Compound P-0907, Propane-1-sulfonic acid [2,4-difluoro-3-(5-fluoro-1H-pyrrolo[2,3-b]pyridine-3-carbonyl)-phenyl]-amide]
≤ 10 µM: B-Raf | B-Raf V600E | c-Raf-1 | FGFR1 | Kit | Src

O=C(COc1ccc(F)c(Cc2c[nH]c3ncc(-c4cccnc4)cc23)c1F)NCc1ccccc1 [Compound P-1469, N-Benzyl-2-[2,4-difluoro-3-(5-pyridin-3-yl-1H-pyrrolo[2,3-b]pyridin-3-ylmethyl)-phenoxy]-acetamide]
not listed: c-Raf-1 | Jnk1 | Ret
≤ 10 µM: all other assays above

O=S(=O)(Nc1ccc(F)c(Cc2c[nH]c3ncc(-c4cccnc4)cc23)c1F)c1ccccc1 [Compound P-1398]
≤ 10 µM: B-Raf V600E | c-Raf-1 | FGFR1 | Src

CN(C)S(=O)(=O)Nc1ccc(F)c(C(=O)c2c[nH]c3ncccc23)c1F [Compound P-0950, Dimethylamine-1-sulfonic acid [3-(1H-pyrrolo[2,3-b]pyridine-3-carbonyl)-2,4-difluoro-phenyl]-amide]
≤ 10 µM: B-Raf V600E | c-Raf-1 | FGFR1 | Src

COCCOc1ccc(F)c(C(=O)c2c[nH]c3ncc(-c4cccc(NS(C)(=O)=O)c4)cc23)c1F [Compound P-1472, N-(3-{3-[2,6-Difluoro-3-(2-methoxy-ethoxy)-benzoyl]-1H-yrrolo[2,3-b]pyridin-5-yl}-phenyl)-methanesulfonamide]
not listed: c-Raf-1 | Jnk1 | Ret
≤ 10 µM: all other assays above

CCCCS(=O)(=O)Nc1ccc(F)c(C(=O)c2c[nH]c3ncc(Cl)cc23)c1F [Compound P-1265, Butane-1-sulfonic acid [3-(5-chloro-1H-pyrrolo[2,3-b]pyridine-3-carbonyl)-2,4-difluoro-phenyl]-amide]
≤ 10 µM: B-Raf | B-Raf V600E | c-Raf-1 | FGFR1 | Fms | Src

COC(=O)Nc1ccc(F)c(C(=O)c2c[nH]c3ncc(Br)cc23)c1F [Compound P-1448]
≤ 10 µM: B-Raf V600E | c-Raf-1 | FGFR1 | Fms | Src

CCCS(=O)(=O)Nc1cccc(C(=O)c2c[nH]c3ncc(-c4cccnc4)cc23)c1F [Compound P-1251, Propane-1-sulfonic acid [2-fluoro-3-(5-pyridin-3-yl-1H-pyrrolo[2,3-b]pyridine-3-carbonyl)-phenyl]-amide]
not listed: Ret
≤ 10 µM: all other assays above

COc1ccnc2[nH]cc(Cc3ccc(NCc4ccc(Cl)cc4)nc3)c12 [Compound P-0373]
≤ 10 µM: B-Raf V600E | FGFR1 | Flt1 | Fms | Src

CCCC(=O)Nc1ccc(F)c(C(O)c2c[nH]c3ncc(-c4cccnc4)cc23)c1F (stereo not drawn) [Compound P-1366]
not listed: B-Raf | c-Raf-1 | Ret
≤ 10 µM: all other assays above

CS(=O)(=O)Nc1cccc(-c2cnc3[nH]cc(Cc4ccc5c(c4)OCCO5)c3c2)c1 [Compound P-1530, N-{3-[3-(2,3-Dihydro-benzo[1,4]dioxin-6-ylmethyl)-1H-pyrrolo[2,3-b]pyridin-5-yl]-phenyl}-methanesulfonamide]
≤ 10 µM: B-Raf V600E | FGFR1 | Flt1 | Fms | Kit | Src

COc1ccc(C(=O)c2c[nH]c3ncc(Br)cc23)c(Cl)c1 [Compound P-0647]
≤ 10 µM: B-Raf V600E | FGFR1 | Kit | Ret | Src

CCCS(=O)(=O)Nc1ccc(F)c(C(=O)c2c[nH]c3ncc(-c4ccc(OC)cc4)cc23)c1F [Compound P-0877, Propane-1-sulfonic acid {2,4-difluoro-3-[5-(4-methoxy-phenyl)-1H-pyrrolo[2,3-b]pyridine-3-carbonyl]-phenyl}-amide]
≤ 10 µM: B-Raf | B-Raf V600E | c-Raf-1 | FGFR1 | Kit | Src

CCCS(=O)(=O)Nc1ccc(F)c(C(=O)c2c[nH]c3ncc(-c4cccc(N(C)C)c4)cc23)c1F [Compound P-0876, Propane-1-sulfonic acid {3-[5-(3-dimethylamino-phenyl)-1H-pyrrolo[2,3-b]pyridine-3-carbonyl]-2,4-difluoro-phenyl}-amide]
not listed: Flt1 | Ret
≤ 10 µM: all other assays above

CCCS(=O)(=O)Nc1ccc(F)c(C(=O)c2c[nH]c3ncc(OCCN(CC)CC)cc23)c1F [Compound P-1254, Propane-1-sulfonic acid {3-[5-(2-diethylamino-ethoxy)-1H-pyrrolo[2,3-b]pyridine-3-carbonyl]-2,4-difluoro-phenyl}-amide]
≤ 10 µM: B-Raf | B-Raf V600E | c-Raf-1 | FGFR1 | Kit | Src

O=C(O)/C=C/c1cccc(-c2cnc3[nH]cc(C(=O)c4cccc(C(F)(F)F)c4)c3c2)c1 [Compound P-1416, (E)-3-{3-[3-(3-Trifluoromethyl-benzoyl)-1H-pyrrolo[2,3-b]pyridin-5-yl]-phenyl}-acrylic acid]
≤ 10 µM: B-Raf V600E | FGFR1 | Flt1 | Fms | Kit | Src
